Measurements taken from PMC10477861, “Efficient Mining of Anticancer Peptides from Gut Metagenome” (Advanced Science, 2023).

How the values were obtained:
Details in all cases: 25 µM pACP, 24 h, maintenance medium 1% FBS, ratio of viability to vehicle (PBS), at least three technical repetitions
HCT116 = experiment: MTT primary screening of anticancer activity, HCT116; format: cell-based, Human
Outline: (§1)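 MTT read-out of cell survival after a 24 h peptide exposure at 25 µM final c[…]ntration. Medium was switched to 1% FBS maintenance medium at treatment, with cultures at 60% confluence.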

MDA-MB-468 = experiment: MTT primary screening of anticancer activity, MDA-MB-468; format: cell-based
Outline: as §1

SK-BR-3 = experiment: MTT primary screening of anticancer activity, SK-BR-3; format: cell-based
Outline: as §1

Hela = experiment: MTT primary screening of anticancer activity, Hela; format: cell-based, Human
Outline: as §1

MDA-MB-231 = experiment: MTT primary screening of anticancer activity, MDA-MB-231; format: cell-based
Outline: as §1

B16 = experiment: MTT primary screening of anticancer activity, B16; format: cell-based, Mouse
Outline: as §1

CT26 = experiment: MTT primary screening of anticancer activity, CT26; format: cell-based, Murine
Outline: as §1

MDA-MB-436 = experiment: MTT primary screening of anticancer activity, MDA-MB-436; format: cell-based
Outline: as §1

EFM192A = experiment: MTT primary screening of anticancer activity, EFM192A; format: cell-based
Outline: as §1

T47D = experiment: MTT primary screening of anticancer activity, T47D; format: cell-based
Outline: as §1

MCF7 = experiment: MTT primary screening of anticancer activity, MCF7; format: cell-based
Outline: as §1

BT474 = experiment: MTT primary screening of anticancer activity, BT474; format: cell-based
Outline: as §1

HT29 = experiment: MTT primary screening of anticancer activity, HT29; format: cell-based, Human
Outline: as §1

Caco2 = experiment: MTT primary screening of anticancer activity, Caco2; format: cell-based, Human
Outline: as §1

MDA-MB-453 = experiment: MTT primary screening of anticancer activity, MDA-MB-453; format: cell-based
Outline: as §1

LCC = experiment: MTT primary screening of anticancer activity, LCC; format: cell-based
Outline: as §1

## YSYGYVISSCKKAGGGYAIRYVALHYVQGTKEGGGRQ [pACP2344]
HCT116
  Survival rate of cancer cells in primary screening: 1.00
MDA-MB-468
  Survival rate of cancer cells in primary screening: 1.00
SK-BR-3
  Survival rate of cancer cells in primary screening: 1.00
Hela
  Survival rate of cancer cells in primary screening: 1.00
MDA-MB-231
  Survival rate of cancer cells in primary screening: 1.00
B16
  Survival rate of cancer cells in primary screening: 0.76
CT26
  Survival rate of cancer cells in primary screening: 1.00
MDA-MB-436
  Survival rate of cancer cells in primary screening: 1.00
EFM192A
  Survival rate of cancer cells in primary screening: 1.00
T47D
  Survival rate of cancer cells in primary screening: 1.00
MCF7
  Survival rate of cancer cells in primary screening: 1.00
BT474
  Survival rate of cancer cells in primary screening: 0.68
HT29
  Survival rate of cancer cells in primary screening: 1.00
Caco2
  Survival rate of cancer cells in primary screening: 1.00
MDA-MB-453
  Survival rate of cancer cells in primary screening: 1.00
LCC
  Survival rate of cancer cells in primary screening: 1.00
